Assay results published in ChEMBL document CHEMBL4706643 (J Med Chem, 2021).

test system: Hepatitis B virus; test: Antiviral activity against HBV infected in human HepG2-NTCP cells assessed as reduction in HBeAg secretion cells inoculated with virus for 4 hrs at room temperature and 37 degree C for 24 hrs followed inoculum changed with PMM medium for every 2 days until day 5 post infection by ELISA; type: functional, organism-based

Row | Structure (SMILES) | IC50
1 | CC[C@@H]1NC(=O)[C@H]([C@@H]2OCC[C@H]2C)N(C)C(=O)[C@H](C(C)C)N(C)C(=O)[C@H](CC(C)C)N(C)C(=O)[C@H](CC(C)C)N(C)C(=O)[C@@H](C)NC(=O)[C@H](C)NC(=O)[C@H](CC(C)C)N(C)C(=O)[C@H](C(C)C)NC(=O)[C@H](CC(C)C)N(C)C(=O)CN(C)C1=O | > 10000 nM
2 | CC[C@@H]1NC(=O)[C@H]([C@@H]2O[C@@H](Sc3cccc(NC)c3)C[C@H]2C)N(C)C(=O)[C@H](C(C)C)N(C)C(=O)[C@H](CC(C)C)N(C)C(=O)[C@H](CC(C)C)N(C)C(=O)[C@@H](C)NC(=O)[C@H](C)NC(=O)[C@H](CC(C)C)N(C)C(=O)[C@H](C(C)C)NC(=O)[C@H](CC(C)C)N(C)C(=O)CN(C)C1=O | 1200 nM
3 | CC[C@@H]1NC(=O)[C@H]([C@@H]2O[C@@H](Sc3cccc(OCC4CC4)c3)C[C@H]2C)N(C)C(=O)[C@H](C(C)C)N(C)C(=O)[C@H](CC(C)C)N(C)C(=O)[C@H](CC(C)C)N(C)C(=O)[C@@H](C)NC(=O)[C@H](C)NC(=O)[C@H](CC(C)C)N(C)C(=O)[C@H](C(C)C)NC(=O)[C@H](CC(C)C)N(C)C(=O)CN(C)C1=O | 365 nM
4 | CC[C@@H]1NC(=O)[C@H]([C@@H]2O[C@@H](Sc3cccc(OC)c3)C[C@H]2C)N(C)C(=O)[C@H](C(C)C)N(C)C(=O)[C@H](CC(C)C)N(C)C(=O)[C@H](CC(C)C)N(C)C(=O)[C@@H](C)NC(=O)[C@H](C)NC(=O)[C@H](CC(C)C)N(C)C(=O)[C@H](C(C)C)NC(=O)[C@H](CC(C)C)N(C)C(=O)CN(C)C1=O | 530 nM
5 | CC[C@@H]1NC(=O)[C@H]([C@@H]2O[C@H](Sc3ccc(OC)cc3)C[C@H]2C)N(C)C(=O)[C@H](C(C)C)N(C)C(=O)[C@H](CC(C)C)N(C)C(=O)[C@H](CC(C)C)N(C)C(=O)[C@@H](C)NC(=O)[C@H](C)NC(=O)[C@H](CC(C)C)N(C)C(=O)[C@H](C(C)C)NC(=O)[C@H](CC(C)C)N(C)C(=O)CN(C)C1=O | 1700 nM
6 | CC[C@@H]1NC(=O)[C@H]([C@@H]2O[C@@H](Sc3cc(Cl)cc(OCc4ccc(F)cc4)c3)C[C@H]2C)N(C)C(=O)[C@H](C(C)C)N(C)C(=O)[C@H](CC(C)C)N(C)C(=O)[C@H](CC(C)C)N(C)C(=O)[C@@H](C)NC(=O)[C@H](C)NC(=O)[C@H](CC(C)C)N(C)C(=O)[C@H](C(C)C)NC(=O)[C@H](CC(C)C)N(C)C(=O)CN(C)C1=O | 417 nM
7 | C/C=C/C[C@@H](C)[C@@H](O)[C@H]1C(=O)N[C@@H](CC)C(=O)N(C)CC(=O)N(C)[C@@H](CC(C)C)C(=O)N[C@@H](C(C)C)C(=O)N(C)[C@@H](CC(C)C)C(=O)N[C@@H](C)C(=O)N[C@H](C)C(=O)N(C)[C@@H](CC(C)C)C(=O)N(C)[C@@H](CC(C)C)C(=O)N(C)[C@@H](C(C)C)C(=O)N1C [CYCLOSPORINE] | 5780 nM
8 | CC[C@@H]1NC(=O)[C@H]([C@@H]2O[C@@H](Sc3nccc(C(F)(F)F)n3)C[C@H]2C)N(C)C(=O)[C@H](C(C)C)N(C)C(=O)[C@H](CC(C)C)N(C)C(=O)[C@H](CC(C)C)N(C)C(=O)[C@@H](C)NC(=O)[C@H](C)NC(=O)[C@H](CC(C)C)N(C)C(=O)[C@H](C(C)C)NC(=O)[C@H](CC(C)C)N(C)C(=O)CN(C)C1=O | 4960 nM
9 | CC[C@@H]1NC(=O)[C@H]([C@@H]2O[C@@H](Sc3cccc(O)c3)C[C@H]2C)N(C)C(=O)[C@H](C(C)C)N(C)C(=O)[C@H](CC(C)C)N(C)C(=O)[C@H](CC(C)C)N(C)C(=O)[C@@H](C)NC(=O)[C@H](C)NC(=O)[C@H](CC(C)C)N(C)C(=O)[C@H](C(C)C)NC(=O)[C@H](CC(C)C)N(C)C(=O)CN(C)C1=O | 1650 nM
10 | CC[C@@H]1NC(=O)[C@H]([C@@H]2OC(OCC(=O)OC)C[C@H]2C)N(C)C(=O)[C@H](C(C)C)N(C)C(=O)[C@H](CC(C)C)N(C)C(=O)[C@H](CC(C)C)N(C)C(=O)[C@@H](C)NC(=O)[C@H](C)NC(=O)[C@H](CC(C)C)N(C)C(=O)[C@H](C(C)C)NC(=O)[C@H](CC(C)C)N(C)C(=O)CN(C)C1=O (stereo partly drawn) | > 10000 nM

Now those with a lower IC50, led by results:

Row | IC50 | Structure (SMILES)
11 | 249 nM | CC[C@@H]1NC(=O)[C@H]([C@@H]2O[C@@H](Sc3cccc(OCC4CCOCC4)c3)C[C@H]2C)N(C)C(=O)[C@H](C(C)C)N(C)C(=O)[C@H](CC(C)C)N(C)C(=O)[C@H](CC(C)C)N(C)C(=O)[C@@H](C)NC(=O)[C@H](C)NC(=O)[C@H](CC(C)C)N(C)C(=O)[C@H](C(C)C)NC(=O)[C@H](CC(C)C)N(C)C(=O)CN(C)C1=O
12 | 317 nM | CC[C@@H]1NC(=O)[C@H]([C@@H]2O[C@@H](Sc3cccc(OCc4ccccn4)c3)C[C@H]2C)N(C)C(=O)[C@H](C(C)C)N(C)C(=O)[C@H](CC(C)C)N(C)C(=O)[C@H](CC(C)C)N(C)C(=O)[C@@H](C)NC(=O)[C@H](C)NC(=O)[C@H](CC(C)C)N(C)C(=O)[C@H](C(C)C)NC(=O)[C@H](CC(C)C)N(C)C(=O)CN(C)C1=O
13 | 197 nM | CC[C@@H]1NC(=O)[C@H]([C@@H]2O[C@@H](Sc3cccc(OCc4cccc(F)c4)c3)C[C@H]2C)N(C)C(=O)[C@H](C(C)C)N(C)C(=O)[C@H](CC(C)C)N(C)C(=O)[C@H](CC(C)C)N(C)C(=O)[C@@H](C)NC(=O)[C@H](C)NC(=O)[C@H](CC(C)C)N(C)C(=O)[C@H](C(C)C)NC(=O)[C@H](CC(C)C)N(C)C(=O)CN(C)C1=O
14 | 172 nM | CC[C@@H]1NC(=O)[C@H]([C@@H]2O[C@@H](Sc3cccc(OC(C)c4ccccc4)c3)C[C@H]2C)N(C)C(=O)[C@H](C(C)C)N(C)C(=O)[C@H](CC(C)C)N(C)C(=O)[C@H](CC(C)C)N(C)C(=O)[C@@H](C)NC(=O)[C@H](C)NC(=O)[C@H](CC(C)C)N(C)C(=O)[C@H](C(C)C)NC(=O)[C@H](CC(C)C)N(C)C(=O)CN(C)C1=O (stereo partly drawn)
15 | 281 nM | CC[C@@H]1NC(=O)[C@H]([C@@H]2O[C@@H](Sc3ccc(C)cc3)C[C@H]2C)N(C)C(=O)[C@H](C(C)C)N(C)C(=O)[C@H](CC(C)C)N(C)C(=O)[C@H](CC(C)C)N(C)C(=O)[C@@H](C)NC(=O)[C@H](C)NC(=O)[C@H](CC(C)C)N(C)C(=O)[C@H](C(C)C)NC(=O)[C@H](CC(C)C)N(C)C(=O)CN(C)C1=O
16 | 318 nM | CC[C@@H]1NC(=O)[C@H]([C@@H]2O[C@@H](Sc3cccc(OCc4ccccc4F)c3)C[C@H]2C)N(C)C(=O)[C@H](C(C)C)N(C)C(=O)[C@H](CC(C)C)N(C)C(=O)[C@H](CC(C)C)N(C)C(=O)[C@@H](C)NC(=O)[C@H](C)NC(=O)[C@H](CC(C)C)N(C)C(=O)[C@H](C(C)C)NC(=O)[C@H](CC(C)C)N(C)C(=O)CN(C)C1=O
17 | 346 nM | CC[C@@H]1NC(=O)[C@H]([C@@H]2O[C@@H](Sc3ccc(OC)c(OC)c3)C[C@H]2C)N(C)C(=O)[C@H](C(C)C)N(C)C(=O)[C@H](CC(C)C)N(C)C(=O)[C@H](CC(C)C)N(C)C(=O)[C@@H](C)NC(=O)[C@H](C)NC(=O)[C@H](CC(C)C)N(C)C(=O)[C@H](C(C)C)NC(=O)[C@H](CC(C)C)N(C)C(=O)CN(C)C1=O
18 | 344 nM | CC[C@@H]1NC(=O)[C@H]([C@@H]2O[C@@H](Oc3cccc(OCc4ccccc4)c3)C[C@H]2C)N(C)C(=O)[C@H](C(C)C)N(C)C(=O)[C@H](CC(C)C)N(C)C(=O)[C@H](CC(C)C)N(C)C(=O)[C@@H](C)NC(=O)[C@H](C)NC(=O)[C@H](CC(C)C)N(C)C(=O)[C@H](C(C)C)NC(=O)[C@H](CC(C)C)N(C)C(=O)CN(C)C1=O
